Data as given in BindingDB's records for doi:10.1016/j.ejmech.2016.09.095 (Orleans University, 2017).
pIC50: −log10 of the molar value.

Legend:
[1] = target: Alpha-N-acetylglucosaminidase (Homo sapiens) (UniProt P54802); assay: Inhibition of alpha-hexosaminidase in human PBMC using 4-methylumbelliferyl 2-acetamido-2-deoxy-alpha-D-glucopyranoside as substrate at pH 4.3 after 17 hrs by fluorescence assay
[2] = target: Alpha-N-acetylglucosaminidase (Homo sapiens) (UniProt P54802); assay: Inhibition of alpha-hexosaminidase (unknown origin)

Chain of Alpha-N-acetylglucosaminidase (Homo sapiens) (P54802 whole entry, looked up): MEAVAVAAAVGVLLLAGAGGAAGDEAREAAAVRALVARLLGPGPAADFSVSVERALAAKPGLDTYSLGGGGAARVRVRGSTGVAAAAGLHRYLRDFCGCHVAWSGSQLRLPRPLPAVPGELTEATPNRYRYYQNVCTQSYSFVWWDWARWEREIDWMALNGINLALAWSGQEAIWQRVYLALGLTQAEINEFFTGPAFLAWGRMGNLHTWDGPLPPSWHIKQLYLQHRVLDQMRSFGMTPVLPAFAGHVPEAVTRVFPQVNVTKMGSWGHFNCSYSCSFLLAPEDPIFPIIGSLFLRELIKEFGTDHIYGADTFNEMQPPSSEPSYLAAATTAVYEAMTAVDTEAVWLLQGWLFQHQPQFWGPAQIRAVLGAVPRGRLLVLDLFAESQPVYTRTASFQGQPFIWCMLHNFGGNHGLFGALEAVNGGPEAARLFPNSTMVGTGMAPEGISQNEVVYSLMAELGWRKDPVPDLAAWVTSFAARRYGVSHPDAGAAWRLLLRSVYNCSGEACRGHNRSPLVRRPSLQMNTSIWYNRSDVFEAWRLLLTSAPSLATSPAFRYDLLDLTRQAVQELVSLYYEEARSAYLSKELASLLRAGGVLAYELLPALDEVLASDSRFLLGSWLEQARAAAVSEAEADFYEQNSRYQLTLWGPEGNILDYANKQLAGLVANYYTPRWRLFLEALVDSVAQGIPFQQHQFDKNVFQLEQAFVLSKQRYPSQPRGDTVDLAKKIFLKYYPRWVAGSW

| pIC50 [1] | pIC50 [2] | Compound |
| --- | --- | --- |
| < 3.80 |  | CCCCC[C@H]1NC[C@@H](O)[C@@H](O)[C@H]1CO |
|  | 7.00 | CC(=O)N[C@@H]1[C@@H](O)[C@H](O)[C@@H](CO)N[C@@H]1COCCCCc1ccccc1 |
